Here are results for 15 molecules from ChEMBL document CHEMBL1909046, “DrugMatrix in vitro pharmacology data”.

The target of data set [1] is 5-hydroxytryptamine receptor 2B (Homo sapiens, UniProt P41595). In kind it is cell membranes, CHO-K1, Membrane. Particulars: cho-k1. Note: in other assays of this panel Not Active means under 50% inhibition at 10 µM.
Data set [2] deals with T1, Cholecystokinin receptor type A (Homo sapiens, UniProt P32238).
T1 sequence (P32238 whole entry): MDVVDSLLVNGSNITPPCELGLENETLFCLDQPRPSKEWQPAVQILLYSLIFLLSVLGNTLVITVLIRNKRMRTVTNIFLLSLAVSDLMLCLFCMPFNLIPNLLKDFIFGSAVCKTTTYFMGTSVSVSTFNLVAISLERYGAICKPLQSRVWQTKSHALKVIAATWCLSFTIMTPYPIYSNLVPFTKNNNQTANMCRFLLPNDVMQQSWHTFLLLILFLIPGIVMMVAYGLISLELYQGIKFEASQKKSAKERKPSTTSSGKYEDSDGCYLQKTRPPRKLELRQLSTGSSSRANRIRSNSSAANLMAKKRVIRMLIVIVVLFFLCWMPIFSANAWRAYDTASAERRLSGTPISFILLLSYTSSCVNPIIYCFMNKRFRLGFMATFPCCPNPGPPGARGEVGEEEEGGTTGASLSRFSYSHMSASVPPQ
In kind it is cell membranes, Membrane. Particulars: 1321-n1.

Data set [3] is described as follows: DRUGMATRIX: Leukotriene, BLT (LTB4) radioligand binding (ligand: [3H]LTB4). It is filed as cell membranes, Membrane. Particulars: u-937, Not Active = under 50% inhibition at 10 µM.
The target of data set [4] is T2, Cysteinyl leukotriene receptor 1 (Homo sapiens, UniProt Q9Y271). Note: in other assays of this panel Not Active means under 50% inhibition at 10 µM.
T2 sequence (Q9Y271 whole entry): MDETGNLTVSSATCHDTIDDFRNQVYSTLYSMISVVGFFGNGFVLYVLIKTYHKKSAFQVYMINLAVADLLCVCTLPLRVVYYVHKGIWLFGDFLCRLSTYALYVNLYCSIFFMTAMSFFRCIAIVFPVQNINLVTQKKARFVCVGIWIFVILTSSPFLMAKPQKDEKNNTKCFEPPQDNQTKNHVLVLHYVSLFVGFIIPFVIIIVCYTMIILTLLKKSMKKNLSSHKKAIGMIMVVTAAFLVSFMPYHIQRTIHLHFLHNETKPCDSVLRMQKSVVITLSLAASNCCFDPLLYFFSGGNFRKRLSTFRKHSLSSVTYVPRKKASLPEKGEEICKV
In kind it is cell membranes, Membrane. The note with it: cho-k1.

The nature of data set [5]: DRUGMATRIX: Phosphodiesterase PDE4 enzyme inhibition (substrate: [3H]cAMP + cAMP). The note with it: u-937; Not Active = under 50% inhibition at 10 µM.
The target of another data set is T3, Interstitial collagenase (Homo sapiens, UniProt P03956).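 Note: MMP-1 enzyme inhibition assay using a peptide substrate; in other assays of this panel Not Active means under 50% inhibition at 10 µM.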
T3 sequence (P03956 whole entry): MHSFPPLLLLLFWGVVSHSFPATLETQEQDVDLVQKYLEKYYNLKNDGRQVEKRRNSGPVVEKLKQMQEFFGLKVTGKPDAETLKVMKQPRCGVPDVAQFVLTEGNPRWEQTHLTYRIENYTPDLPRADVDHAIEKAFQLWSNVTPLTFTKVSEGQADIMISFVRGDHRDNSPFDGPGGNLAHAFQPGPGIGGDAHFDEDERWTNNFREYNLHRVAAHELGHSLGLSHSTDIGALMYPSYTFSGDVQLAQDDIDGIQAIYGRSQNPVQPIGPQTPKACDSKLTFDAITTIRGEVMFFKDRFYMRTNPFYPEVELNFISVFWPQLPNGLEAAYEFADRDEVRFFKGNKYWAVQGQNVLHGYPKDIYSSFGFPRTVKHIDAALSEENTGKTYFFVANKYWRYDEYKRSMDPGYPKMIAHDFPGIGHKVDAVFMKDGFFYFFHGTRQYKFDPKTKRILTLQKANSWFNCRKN
In words: biochemical. It is filed as tissue-based, Rheumatoid synovial fibroblasts.

A further data set addresses T4, Cytochrome P450 2A6 (Homo sapiens, UniProt P11509).
T4 sequence (P11509 whole entry): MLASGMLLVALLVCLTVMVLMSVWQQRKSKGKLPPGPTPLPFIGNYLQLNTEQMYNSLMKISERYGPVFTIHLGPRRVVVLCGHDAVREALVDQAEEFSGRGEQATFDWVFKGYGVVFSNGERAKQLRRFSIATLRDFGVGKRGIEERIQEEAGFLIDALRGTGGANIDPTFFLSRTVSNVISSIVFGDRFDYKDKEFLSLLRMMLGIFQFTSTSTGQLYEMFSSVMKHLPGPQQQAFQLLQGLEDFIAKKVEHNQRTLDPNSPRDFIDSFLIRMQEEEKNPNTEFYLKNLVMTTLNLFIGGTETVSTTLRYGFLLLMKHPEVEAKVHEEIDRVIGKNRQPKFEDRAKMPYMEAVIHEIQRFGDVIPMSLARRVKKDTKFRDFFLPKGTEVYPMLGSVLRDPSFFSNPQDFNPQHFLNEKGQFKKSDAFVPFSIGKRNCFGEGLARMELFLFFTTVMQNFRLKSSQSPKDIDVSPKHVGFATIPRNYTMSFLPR
Particulars: bti-tn-5b1-4.

Sequence of 5-hydroxytryptamine receptor 2B (P41595 whole entry): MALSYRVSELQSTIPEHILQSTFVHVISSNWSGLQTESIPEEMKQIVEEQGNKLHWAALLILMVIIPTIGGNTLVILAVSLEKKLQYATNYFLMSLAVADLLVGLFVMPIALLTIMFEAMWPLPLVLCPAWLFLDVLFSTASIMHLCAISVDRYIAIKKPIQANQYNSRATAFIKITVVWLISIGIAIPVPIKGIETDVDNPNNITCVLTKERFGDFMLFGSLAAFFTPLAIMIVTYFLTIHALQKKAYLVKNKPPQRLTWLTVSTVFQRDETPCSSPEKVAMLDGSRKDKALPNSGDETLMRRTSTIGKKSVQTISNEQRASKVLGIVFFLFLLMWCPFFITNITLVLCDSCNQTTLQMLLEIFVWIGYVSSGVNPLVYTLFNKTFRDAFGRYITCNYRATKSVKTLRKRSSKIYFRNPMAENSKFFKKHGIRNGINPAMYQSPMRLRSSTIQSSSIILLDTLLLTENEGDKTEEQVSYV

A word on the IC50: it is the point on the concentration scale where inhibition reaches its midpoint. The term Ki denotes a measure of affinity in units of concentration, obtained from inhibition or displacement. With `CN(C)C(=N)NC(=N)N` [METFORMIN], the 50% inhibitory concentration (IC50) entry (in data set [1]; in data set [2]; in data set [3]; in data set [4]; in data set [5]; against Interstitial collagenase) was “Not Active” each time. Further, the IC50 result on Cytochrome P450 2A6 is reported as “Not Active”. Besides, the Ki result (in data set [3]; in data set [5]; at Cytochrome P450 2A6) was “Not Active” throughout.

For the molecule `CC(C)(C)NCC(O)COc1cccc2c1CC(O)C(O)C2` (stereo not given) [NADOLOL], the IC50 entry (in data set [1]; in data set [2]; in data set [3]; in data set [4]; in data set [5]; against Interstitial collagenase) was “Not Active” in each case. The IC50 entry against Cytochrome P450 2A6 is “Not Active”. The Ki entry (in data set [3]; in data set [5]; on Cytochrome P450 2A6) was “Not Active” throughout.

Take `C[C@]12CC[C@H]3[C@@H](CCC4=CC(=O)CC[C@@H]43)[C@@H]1CC[C@@H]2O` [NANDROLONE]: the IC50 entry (in data set [1]; in data set [2]; in data set [3]; in data set [4]; in data set [5]; against Interstitial collagenase) was “Not Active” each time. Further, the IC50 result against Cytochrome P450 2A6 is reported as “Not Active”. In addition, the Ki entry (in data set [3]; in data set [5]; at Cytochrome P450 2A6) was “Not Active” in each case.

In the case of `CN(C)C(=O)Oc1cccc([N+](C)(C)C)c1.[Br-]` [NEOSTIGMINE BROMIDE], the 50% inhibitory concentration (IC50) result (in data set [1]; in data set [2]; in data set [3]; in data set [4]; in data set [5]; at Interstitial collagenase) was “Not Active” in each case. Further, the IC50 result at Cytochrome P450 2A6 is “Not Active”. The Ki entry (in data set [3]; in data set [5]; on Cytochrome P450 2A6) was “Not Active” each time.

As to `NC(=O)c1cccnc1` [NIACINAMIDE], the IC50 result (in data set [1]; in data set [2]; in data set [3]; in data set [4]; in data set [5]; against Interstitial collagenase) was “Not Active” each time. Further, the 50% inhibitory concentration (IC50) entry on Cytochrome P450 2A6 was “Not Active”. In addition, the Ki entry (in data set [3]; in data set [5]; on Cytochrome P450 2A6) was “Not Active” each time.

Consider `CS(=O)(=O)Nc1ccc([N+](=O)[O-])cc1Oc1ccccc1` [NIMESULIDE], for which the IC50 entry is “Not Active” in data set [1]; “Not Active” in data set [2]; “Not Active” in data set [3]; “Not Active” in data set [4]; “Not Active” in data set [5]; 23.3 µM at Interstitial collagenase (read-out: IC50). The half-inhibitory concentration (IC50) result on Cytochrome P450 2A6 is given as “Not Active”. Also, the Ki entry (in data set [3]; in data set [5]; at Cytochrome P450 2A6) was “Not Active” throughout.

With `CN1C(=O)CN=C(c2ccccc2)c2cc([N+](=O)[O-])ccc21` [NIMETAZEPAM], the IC50 entry (in data set [1]; in data set [2]; in data set [3]; in data set [4]; in data set [5]; against Interstitial collagenase) was “Not Active” in each case. Further, the IC50 result on Cytochrome P450 2A6 is reported as “Not Active”. Moreover, the Ki entry (in data set [3]; in data set [5]; at Cytochrome P450 2A6) was “Not Active” each time.

As for `COc1ccc2c(c1OC)C(=O)O[C@@H]2[C@H]1c2c(cc3c(c2OC)OCO3)CCN1C` [NOSCAPINE], the IC50 entry (in data set [1]; in data set [2]; in data set [3]; in data set [4]; in data set [5]; at Interstitial collagenase) was “Not Active” throughout. In addition, the 50% inhibitory concentration (IC50) entry at Cytochrome P450 2A6 is “Not Active”. Moreover, the inhibition constant Ki entry (in data set [3]; in data set [5]; on Cytochrome P450 2A6) was “Not Active” each time.

`C[C@@H]1O[C@@H](O[C@H]2C[C@@H](O)[C@]3(CO)[C@H]4[C@H](O)C[C@]5(C)[C@@H](C6=CC(=O)OC6)CC[C@]5(O)[C@@H]4CC[C@]3(O)C2)[C@H](O)[C@H](O)[C@H]1O` [OUABAIN]: the 50% inhibitory concentration (IC50) result (in data set [1]; in data set [2]; in data set [3]; in data set [4]; in data set [5]; at Interstitial collagenase) was “Not Active” throughout. The IC50 entry against Cytochrome P450 2A6 is listed as “Not Active”. The Ki result (in data set [3]; in data set [5]; on Cytochrome P450 2A6) was “Not Active” throughout.

With `NC(=O)N1c2ccccc2CC(=O)c2ccccc21` [OXCARBAZEPINE], the half-inhibitory concentration (IC50) entry (in data set [1]; in data set [2]; in data set [3]; in data set [4]; in data set [5]; against Interstitial collagenase) was “Not Active” each time. Further, the IC50 entry on Cytochrome P450 2A6 is “Not Active”. In addition, the Ki entry (in data set [3]; in data set [5]; on Cytochrome P450 2A6) was “Not Active” throughout.

For the molecule `COc1ccnc(C[S+]([O-])c2nc3ccc(OC(F)F)cc3[nH]2)c1OC` (stereo not given) [PANTOPRAZOLE], the IC50 result (in data set [1]; in data set [2]; in data set [3]; in data set [4]; in data set [5]; at Interstitial collagenase) was “Not Active” in each case. In addition, on Cytochrome P450 2A6, the IC50 entry is recorded as “Not Active”. Besides, the Ki entry (in data set [3]; in data set [5]; on Cytochrome P450 2A6) was “Not Active” throughout.

Consider `N=C(N)c1ccc(OCCCCCOc2ccc(C(=N)N)cc2)cc1` [PENTAMIDINE], for which the concentration for half-maximal inhibition (IC50) entry in data set [1] was “Not Active”; in data set [2] it was “Not Active”; in data set [3] (read-out: IC50), 0.242 µM; in data set [4], “Not Active”; in data set [5] it was “Not Active”; at Interstitial collagenase it was “Not Active”. The IC50 result against Cytochrome P450 2A6 is listed as “Not Active”. For the same molecule, the inhibition constant (Ki) was 0.061 µM in data set [3] (read-out: Ki), “Not Active” in data set [5] and “Not Active” at Cytochrome P450 2A6.

`NNCCc1ccccc1` [PHENELZINE]: the IC50 result (in data set [1]; in data set [2]; in data set [3]; in data set [4]; in data set [5]; at Interstitial collagenase) was “Not Active” in each case. Moreover, the IC50 entry at Cytochrome P450 2A6 is reported as “Not Active”. The Ki entry (in data set [3]; in data set [5]; at Cytochrome P450 2A6) was “Not Active” in each case.

With `CCc1ccc(CCOc2ccc(CC3SC(=O)NC3=O)cc2)nc1` (stereo not given) [PIOGLITAZONE], the IC50 result in data set [1] was “Not Active”; in data set [2], “Not Active”; in data set [3] (read-out: IC50) it was 86.9 µM; in data set [4], “Not Active”; in data set [5], “Not Active”; against Interstitial collagenase, “Not Active”. The half-inhibitory concentration (IC50) entry against Cytochrome P450 2A6 is reported as “Not Active”. The Ki in data set [3] (read-out: Ki) is 22.1 µM; in data set [5], “Not Active”; on Cytochrome P450 2A6 it was “Not Active”.

Take `CCCNC(C)C(=O)Nc1ccccc1C` (stereo not given) [PRILOCAINE]: the IC50 result (in data set [1]; in data set [2]; in data set [3]; in data set [4]; in data set [5]; at Interstitial collagenase) was “Not Active” in each case. For the same molecule, the IC50 entry against Cytochrome P450 2A6 is “Not Active”. Also, the inhibitory constant (Ki) entry (in data set [3]; in data set [5]; at Cytochrome P450 2A6) was “Not Active” in each case.
